In patent US20240043427A1 (Gilead Sciences, Inc., priority 2020, published 2024):

Experiments:
CD73 [1] = target: T1, CD73 (Homo sapiens (Human), UniProt P21589); experiment: MDA-MB-231 Cell Based CD73 Activity Assay (DMEM); conditions: MDA-MB-231-GFP cells, DMEM medium with 10% human plasma, 200 uM AMP
Method: MDA-MB-231 Cell Based CD73 Activity Assay (DMEM) MDA-MB-231-GFP cells were seeded in 384-well plates (Greiner 781946) at a density of 3000 cells per well in 50 μL of DMEM medium with 10% HP (human plasma). Cells were plated into assay plate with compounds pre-spotted, for an overnight compound treatment. 50 uL of 400 uM AMP (final concentration will be 200 uM) was added using Bio-tek dispenser. Plates were incubated for 100 mins. […] The samples were analyzed using Rapid fire.

CD73 [2] = target: T1, CD73; type: biochemical; conditions: 1 mM NaH2PO4 in enzyme buffer, CD73 0.3 nM, AMP 15 uM

T1 sequence (P21589 27-574): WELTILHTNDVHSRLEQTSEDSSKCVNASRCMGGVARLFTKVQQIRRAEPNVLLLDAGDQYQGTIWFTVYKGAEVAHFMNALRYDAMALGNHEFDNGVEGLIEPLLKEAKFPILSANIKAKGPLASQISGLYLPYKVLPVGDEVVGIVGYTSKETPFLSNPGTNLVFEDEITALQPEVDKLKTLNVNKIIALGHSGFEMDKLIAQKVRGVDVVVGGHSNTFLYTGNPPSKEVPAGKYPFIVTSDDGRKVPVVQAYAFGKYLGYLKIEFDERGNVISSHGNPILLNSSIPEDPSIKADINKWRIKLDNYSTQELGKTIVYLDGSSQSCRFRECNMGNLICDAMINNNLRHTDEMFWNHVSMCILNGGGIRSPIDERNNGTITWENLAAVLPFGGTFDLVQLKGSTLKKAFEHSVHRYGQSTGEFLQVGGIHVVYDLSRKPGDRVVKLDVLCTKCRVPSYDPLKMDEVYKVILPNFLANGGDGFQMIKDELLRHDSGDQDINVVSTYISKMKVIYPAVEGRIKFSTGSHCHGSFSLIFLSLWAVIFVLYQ

Row | Structure (SMILES) | EC50 (CD73 [1]) [nM] | IC50 (CD73 [2]) [nM]
1 | O=c1[nH]cc(-c2cc([C@H]3C[C@@H]3c3ccc4c(C(F)(F)F)ccnc4c3)c3nccn3n2)c(=O)[nH]1 [Example 139, 5-(8-((1S,2S)-2-(4-(trifluoromethyl)quinolin-7-yl)cyclopropyl)imidazo[1,2-b]pyridazin-6-yl)pyrimidine-2,4(1H,3H)-dione] | 296 | 4.55
2 | CC1(C)CN(c2cc(-c3c[nH]c(=O)[nH]c3=O)nn3c(F)cnc23)CC1(F)F [Example 81, 5-[8-(3,3-difluoro-4,4-dimethyl-pyrrolidin-1-yl)-3-fluoro-imidazo[1,2-b]pyridazin-6-yl]-1H-pyrimidine-2,4-dione] | 8.22 | 1.93
3 | O=c1[nH]cc(-c2cc(N3CC(F)(F)C(F)(F)C3)n3ncnc3n2)c(=O)[nH]1 [Example 356, 5-(7-(3,3,4,4-tetrafluoropyrrolidin-1-yl)-[1,2,4]triazolo[1,5-a]pyrimidin-5-yl)pyrimidine-2,4(1H,3H)-dione] | 916 | > 250
4 | O=c1[nH]cc(-c2cc([C@H]3C[C@@H]3c3cc4c(cn3)c(C(F)(F)F)nn4CC(F)(F)F)c3nccn3n2)c(=O)[nH]1 [Example 637, 5-(8-((1S,2S)-2-(1-(2,2,2-trifluoroethyl)-3-(trifluoromethyl)-1H-pyrazolo[4,3-c]pyridin-6-yl)cyclopropyl)imidazo[1,2-b]pyridazin-6-yl)pyrimidine-2,4(1H,3H)-dione] | 0.39 | 2.06
5 | COc1ccc(CN(CC(F)F)c2cc(-c3c[nH]c(=O)[nH]c3=O)nn3ccnc23)cc1 [Example 671, 5-(8-((2,2-difluoroethyl)(4-methoxybenzyl)amino)imidazo[1,2-b]pyridazin-6-yl)pyrimidine-2,4(1H,3H)-dione] | 1620 | > 250
6 | O=c1[nH]cc(-c2cc([C@H]3C[C@@H]3c3ccn4c(C(F)(F)F)ncc4c3)c3nccn3n2)c(=O)[nH]1 (racemic) [Example 625, 5-(8-((1S,2S)-2-(3-(trifluoromethyl)imidazo[1,5-a]pyridin-7-yl)cyclopropyl)imidazo[1,2-b]pyridazin-6-yl)pyrimidine-2,4(1H,3H)-dione] | 10.1 | 2.47
7 | CC1(C)CN(c2cc(-c3c[nH]c(=O)[nH]c3=O)nn3ccnc23)C(=O)O1 [Example 514, 5-(8-(5,5-dimethyl-2-oxooxazolidin-3-yl)imidazo[1,2-b]pyridazin-6-yl)pyrimidine-2,4(1H,3H)-dione] | 269 | 212
8 | O=c1[nH]cc(-c2cc(N3CCC4(CCCC4)C3)c3nccn3n2)c(=O)[nH]1 [Example 315, 5-(8-(2-azaspiro[4.4]nonan-2-yl)imidazo[1,2-b]pyridazin-6-yl)pyrimidine-2,4(1H,3H)-dione] | 27.6 | 6.64
9 | CC(C)c1nn(CC(F)(F)F)c2cc([C@H]3C[C@@H]3c3cc(-c4c[nH]c(=O)[nH]c4=O)nn4ccnc34)ccc12 (racemic) [Example 396, 5-(8-((1S,2S)-2-(3-isopropyl-1-(2,2,2-trifluoroethyl)-1H-indazol-6-yl)cyclopropyl)imidazo[1,2-b]pyridazin-6-yl)pyrimidine-2,4(1H,3H)-dione] | 0.24 | 2
10 | O=c1[nH]cc(-c2cc(N3CCC(F)(c4ccc(F)cc4)C3)c3nccn3n2)c(=O)[nH]1 (stereo not drawn) [Example 255, 5-(8-(3-fluoro-3-(4-fluorophenyl)pyrrolidin-1-yl)imidazo[1,2-b]pyridazin-6-yl)pyrimidine-2,4(1H,3H)-dione] | 113 | 17.5
11 | O=c1[nH]cc(-c2cc([C@H]3C[C@@H]3c3cc(OCC(F)(F)F)c(Cl)cn3)c3nccn3n2)c(=O)[nH]1 (racemic) [Example 600, 5-(8-((1S,2S)-2-(5-chloro-4-(2,2,2-trifluoroethoxy)pyridin-2-yl)cyclopropyl)imidazo[1,2-b]pyridazin-6-yl)pyrimidine-2,4(1H,3H)-dione] | 6.64 | 2.59
12 | O=C1N(CC(F)(F)F)c2cc([C@H]3C[C@@H]3c3cc(-c4c[nH]c(=O)[nH]c4=O)nn4c(Cl)cnc34)ccc2C12CC2 [Example 388, 5-(3-chloro-8-((1S,2S)-2-(2′-oxo-1′-(2,2,2-trifluoroethyl)spiro[cyclopropane-1,3′-indolin]-6′-yl)cyclopropyl)imidazo[1,2-b]pyridazin-6-yl)pyrimidine-2,4(1H,3H)-dione] | 0.21 | 0.41
13 | O=c1[nH]cc(-c2cc([C@H]3C[C@@H]3c3ccc4nc(C(F)(F)F)ccc4c3)c3nccn3n2)c(=O)[nH]1 (racemic) [Example 142, 5-(8-((1S,2S)-2-(2-(trifluoromethyl)quinolin-6-yl)cyclopropyl)imidazo[1,2-b]pyridazin-6-yl)pyrimidine-2,4(1H,3H)-dione and 5-(8-((1R,2R)-2-(2-(trifluoromethyl)quinolin-6-yl)cyclopropyl)imidazo[1,2-b]pyridazin-6-yl)pyrimidine-2,4(1H,3H)-dione] | 3.76 | 0.96
14 | O=c1[nH]cc(-c2cc(N3CC(F)(F)C4(CC4)C3)n3ncnc3n2)c(=O)[nH]1 [Example 357, 5-(7-(7,7-difluoro-5-azaspiro[2.4]heptan-5-yl)-[1,2,4]triazolo[1,5-a]pyrimidin-5-yl)pyrimidine-2,4(1H,3H)-dione] | 402 | > 250
15 | O=c1[nH]cc(-c2cc([C@H]3C[C@@H]3c3cc(OCC(F)(F)F)c4cccnc4c3)c3nccn3n2)c(=O)[nH]1 (racemic) [Example 627, 5-(8-((1S,2S)-2-(5-(2,2,2-trifluoroethoxy)quinolin-7-yl)cyclopropyl)imidazo[1,2-b]pyridazin-6-yl)pyrimidine-2,4(1H,3H)-dione] | > 50 | 2.57
16 | O=c1[nH]cc(-c2cc([C@H]3C[C@@H]3c3ncc(Cl)cc3F)c3ncc(F)n3n2)c(=O)[nH]1 [Example 588, 5-(8-((1S,2S)-2-(5-chloro-3-fluoropyridin-2-yl)cyclopropyl)-3-fluoroimidazo[1,2-b]pyridazin-6-yl)pyrimidine-2,4(1H,3H)-dione] | 2.33 | 0.69
17 | O=c1[nH]cc(-c2cc(N3CC4C(C3)C4(F)F)c3nccn3n2)c(=O)[nH]1 (stereo not drawn) [Example 224, 5-(8-(6,6-difluoro-3-azabicyclo[3.1.0]hexan-3-yl)imidazo[1,2-b]pyridazin-6-yl)pyrimidine-2,4(1H,3H)-dione] | 32.6 | 11.9
18 | O=c1[nH]cc(-c2cc(N3CC(F)(F)C3)c3nccn3n2)c(=O)[nH]1 [Example 481, 5-(8-(3,3-difluoroazetidin-1-yl)imidazo[1,2-b]pyridazin-6-yl)pyrimidine-2,4(1H,3H)-dione] | 44.4 | 26.1
19 | CC(C)(C)NC(=O)O[C@H]1CN(c2cc(-c3c[nH]c(=O)[nH]c3=O)nn3ccnc23)CC1(F)F [Example 544, (S)-1-(6-(2,4-dioxo-1,2,3,4-tetrahydropyrimidin-5-yl)imidazo[1,2-b]pyridazin-8-yl)-4,4-difluoropyrrolidin-3-yl tert-butylcarbamate] | 0.13 | 1.01
20 | O=c1[nH]cc(-c2cc(N3CC(OCC(F)(F)F)C3)c3nccn3n2)c(=O)[nH]1 [Example 447, 5-(8-(3-(2,2,2-trifluoroethoxy)azetidin-1-yl)imidazo[1,2-b]pyridazin-6-yl)pyrimidine-2,4(1H,3H)-dione] | 718 | > 250
21 | CC1(C)CN(c2cc(-c3c[nH]c(=O)[nH]c3=O)nc3ncnn23)CC1(F)F [Example 420, 5-(7-(3,3-difluoro-4,4-dimethylpyrrolidin-1-yl)-[1,2,4]triazolo[1,5-a]pyrimidin-5-yl)pyrimidine-2,4(1H,3H)-dione] | 13.7 | 4.87
22 | O=c1[nH]cc(-c2cc([C@H]3C[C@@H]3c3ccc4c(c3)c(=O)ccn4CC(F)(F)F)c3nccn3n2)c(=O)[nH]1 [Example 708, 5-(8-((1S,2S)-2-(4-oxo-1-(2,2,2-trifluoroethyl)-1,4-dihydroquinolin-6-yl)cyclopropyl)imidazo[1,2-b]pyridazin-6-yl)pyrimidine-2,4(1H,3H)-dione] | 6.21 | 3.3
23 | O=c1[nH]cc(-c2cc(N3CC(OCC(F)F)C(F)(F)C3)c3nccn3n2)c(=O)[nH]1 (stereo not drawn) [Example 524, 5-(8-(4-(2,2-difluoroethoxy)-3,3-difluoropyrrolidin-1-yl)imidazo[1,2-b]pyridazin-6-yl)pyrimidine-2,4(1H,3H)-dione] | 11 | 3.75
24 | O=c1[nH]cc(-c2cc(N3CCC(CO)(CCl)C3)c3nccn3n2)c(=O)[nH]1 (stereo not drawn) [Example 652, 5-(8-(3-(chloromethyl)-3-(hydroxymethyl)pyrrolidin-1-yl)imidazo[1,2-b]pyridazin-6-yl)pyrimidine-2,4(1H,3H)-dione] | 79.6 | 19.6
25 | CC(C)(O)CCNc1cc(-c2c[nH]c(=O)[nH]c2=O)nn2ccnc12 [Example 485, 5-(8-((3-hydroxy-3-methylbutyl)amino)imidazo[1,2-b]pyridazin-6-yl)pyrimidine-2,4(1H,3H)-dione] | 700 | > 250
26 | O=c1[nH]cc(-c2cc(N3CC(F)(C(F)(F)F)C3)n3ncnc3n2)c(=O)[nH]1 [Example 402, 5-(7-(3-fluoro-3-(trifluoromethyl)azetidin-1-yl)-[1,2,4]triazolo[1,5-a]pyrimidin-5-yl)pyrimidine-2,4(1H,3H)-dione] | 136 | 53.2
27 | O=C(c1ccc(C2CN(c3cc(-c4c[nH]c(=O)[nH]c4=O)nn4ccnc34)C2)cc1)N1CC(F)(F)C1 [Example 267, 5-(8-(3-(4-(3,3-difluoroazetidine-1-carbonyl)phenyl)azetidin-1-yl)imidazo[1,2-b]pyridazin-6-yl)pyrimidine-2,4(1H,3H)-dione] | 66.6 | 34.7
